PubChem BioAssay AID1963843 (Molecular Pharmacology Branch, DTP, NCI, 2024)

Tested on: 616215-338-R-J1-PDC complex spheroid viability
Assay: Anticancer human tumor 616215-338-R-J1-PDC patient-derived colon adenocarcinoma cell line growth inhibition [POLQ]
Details: for IC50: curve of first compound; for viability, T/C: stronger effect = lower value
Protocol: Multicellular complex tumor spheroid response to Polymerase (POL) inhibitors (novobiocin, ART-558, RP6685) in combination with a variety of drugs and investigational agents in selected tumor cell lines
The POL inhibitors (novobiocin, ART-558, and RP6685) were evaluated both individually and in combination with standard of care and investigational anticancer small molecules within a complex spheroid model of solid tumors. . Complex spheroids include a stromal component modeled by human endothelial cells (HUVEC) and fibroblasts modeled by human mesenchymal stem cells (MSCs). The concentration ranges selected for each drug and investigational agent were based upon clinically achievable concentrations if the clinical Cmax of the agent was known.
Compounds. The drugs and investigational agents: novobiocin (NSC847541), ART-558 (NSC835418), RP-6685 (NSC848927), peposertib (NSC802822), ceralasertib (NSC780249), elimusertib (NSC800525), camonsertib (NSC841442), AZD-1390 (NSC803789), olaparib (NSC753686), talazoparib (NSC767125), rucaparib (NSC756644), sotorasib (NSC818433), MRTX-1133 (NSC836407), SN-38 (NSC673596), topotecan (NSC609699), epotoside (NSC141540), doxorubicin (NSC123127), gemcitabine (NSC613327), 5-fluorouracil (NSC19893), paclitaxel (NSC125973), vemurafenib (NSC761431), MSA-2 (NSC828583), SN-011 (NSC837082), adavosertib (NSC754352), prexasertib (NSC758257), carboplatin (NSC241240) and oxaliplatin (NSC266046), were obtained from the National Cancer Institute (NCI) Developmental Therapeutics Program Chemical Repository (21). The FDA-approved anticancer drug set is available from the Developmental Therapeutics Program at https://dtp.cancer.gov/organization/dscb/obtaining/. […] The stock solutions were prepared in dimethyl sulfoxide (DMSO, Sigma-Aldrich, St. Louis, MO, cat. D2650), except for the platinum compounds which were prepared in saline (Quality Biological, Gaithersburg, MD, cat. 114-055-101), at 800-fold the tested concentration and stored at -70 degrees C prior to their use. All drugs and investigational agents were tested over a range starting from a high concentration at or near the clinical Cmax and decreasing in half-log increments. If the clinical Cmax for an agent had not been determined, the highest concentration tested was 10 microM, except for SN-38, which was tested at a high concentration of 1 microM.
Cell Culture. All cells were maintained in an incubator at 37 degrees C and 5% CO2 with 95% humidity. The PDC lines were cultured according to standard operating procedures established by the NCI PDMR (https://pdmr.cancer.gov). Table 3 of the manuscript, lists the cell lines along with the number of the three cell types plated to form the mct-spheroids and media for tumor cell growth. After thawing, all PDC lines, except 997537-175-T-J1-PDC and 415267-285-R-J2-PDC, were cultured in Matrigel-coated flasks prepared with a working solution of 1X Ham's F-12 nutrient mix, without supplementation (Thermo Fisher Scientific, cat. 11765054), 100 U/mL penicillin-streptomycin (Thermo Fisher Scientific, cat. 15140122), and 2.5% Matrigel (Corning Inc., Corning, NY, cat. 354248) for the first three passages. The two PDC lines 997537-175-T-J1-PDC and 415267-285-R-J2-PDC were cultured on uncoated flasks. The 857933-349-R-J2-PDC line was cultured in 6C/Colon 1B media containing advanced DMEM/F-12 (Thermo Fisher Scientific, cat. 12634028), 10 mM HEPES (Thermo Fisher Scientific, cat. 15630080), 1X GlutaMAX supplement (Thermo Fisher Scientific, cat. 35050061), 0.1 mg/mL primocin (InvivoGen, San Diego, CA, cat. ant-pm-2), 10% defined fetal bovine serum, heat inactivated (HyClone Laboratories Inc., Logan, UT, cat. SH30070.03HI), 50% L-WRN conditioned media (ATCC, cat. CRL-3276), 1.25 mM N-Acetyl-L-cysteine (Sigma-Aldrich, cat. A9165), 10 mM nicotinamide (Sigma-Aldrich, cat. N0636), 1X B-27 supplement (Thermo Fisher Scientific, cat. 17504044), 1X N-2 supplement (Thermo Fisher Scientific, cat. […]

[1] = second compound 0.0316 µM, first compound 0.0316 µM
[2] = second compound 0.0316 µM, first compound 0.1 µM
[3] = second compound 0.0316 µM, first compound 0.316 µM
[4] = second compound 0.0316 µM, first compound 1 µM
[5] = second compound 0.1 µM, first compound 0.0316 µM
[6] = second compound 0.1 µM, first compound 0.1 µM
[7] = second compound 0.1 µM, first compound 0.316 µM
[8] = second compound 0.1 µM, first compound 1 µM
[9] = second compound 0.316 µM, first compound 0.0316 µM
[10] = second compound 0.316 µM, first compound 0.1 µM
[11] = second compound 0.316 µM, first compound 0.316 µM
[12] = second compound 0.316 µM, first compound 1 µM
[13] = second compound 1 µM, first compound 0.0316 µM
[14] = second compound 1 µM, first compound 0.1 µM
[15] = second compound 1 µM, first compound 0.316 µM
[16] = second compound 1 µM, first compound 1 µM
[17] = second compound 3.16 µM, first compound 0.0316 µM
[18] = second compound 3.16 µM, first compound 0.1 µM
[19] = second compound 3.16 µM, first compound 0.316 µM
[20] = second compound 3.16 µM, first compound 1 µM
[21] = second compound 10 µM, first compound 0.0316 µM
[22] = second compound 10 µM, first compound 0.1 µM
[23] = second compound 10 µM, first compound 0.316 µM
[24] = second compound 10 µM, first compound 1 µM
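Note: spheroids exposed to compounds for one week before readout.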
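Throughout, for viability, T/C: percent viability relative to DMSO vehicle wells taken as 100%.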

COc1cccc2c1C(=O)c1c(O)c3c(c(O)c1C2=O)CC(O)(C(=O)CO)CC3OC1CC(N)C(O)C(C)O1 (centres undefined) + COC1C(OC(N)=O)C(O)C(Oc2ccc3c(O)c(NC(=O)c4ccc(O)c(CC=C(C)C)c4)c(=O)oc3c2C)OC1(C)C
IC50 (second compound 0.0316 µM): 948 nM | IC50 (second compound 0.1 µM): 762 nM | IC50 (second compound 0.316 µM): 864 nM | IC50 (second compound 1 µM): 964 nM | IC50 (second compound 3.16 µM): 778 nM | IC50 (second compound 10 µM): 1410 nM | viability, T/C [1]: 98.8% | viability, T/C [2]: 102% | viability, T/C [3]: 79.2% | viability, T/C [4]: 52.5% | viability, T/C (second compound 0.0316 µM, first compound 3.16 µM): 8.11% | viability, T/C (second compound 0.0316 µM, first compound 10 µM): 1.26% | viability, T/C [5]: 110% | viability, T/C [6]: 100% | viability, T/C [7]: 69% | viability, T/C [8]: 49.2% | viability, T/C (second compound 0.1 µM, first compound 3.16 µM): 9.57% | viability, T/C (second compound 0.1 µM, first compound 10 µM): 1.74% | viability, T/C [9]: 106% | viability, T/C [10]: 97.8% | viability, T/C [11]: 71.8% | viability, T/C [12]: 55.5% | viability, T/C (second compound 0.316 µM, first compound 3.16 µM): 5.27% | viability, T/C (second compound 0.316 µM, first compound 10 µM): 0.89% | viability, T/C [13]: 118% | viability, T/C [14]: 110% | viability, T/C [15]: 86.5% | viability, T/C [16]: 53.7% | viability, T/C (second compound 1 µM, first compound 3.16 µM): 6.46% | viability, T/C (second compound 1 µM, first compound 10 µM): 0.25% | viability, T/C [17]: 102% | viability, T/C [18]: 105% | viability, T/C [19]: 79.9% | viability, T/C [20]: 41.9% | viability, T/C (second compound 3.16 µM, first compound 3.16 µM): 9.53% | viability, T/C (second compound 3.16 µM, first compound 10 µM): 0.27% | viability, T/C [21]: 99.6% | viability, T/C [22]: 102% | viability, T/C [23]: 76.2% | viability, T/C [24]: 70.4% | viability, T/C (second compound 10 µM, first compound 3.16 µM): 7.3% | viability, T/C (second compound 10 µM, first compound 10 µM): 0.34%

COc1cccc(OCCCN)c1-c1cc(Nc2cnc(C#N)cn2)n[nH]1 + COC1C(OC(N)=O)C(O)C(Oc2ccc3c(O)c(NC(=O)c4ccc(O)c(CC=C(C)C)c4)c(=O)oc3c2C)OC1(C)C
IC50 (second compound 0.0316 µM): > 1000 nM | IC50 (second compound 0.1 µM): > 1000 nM | IC50 (second compound 0.316 µM): > 1000 nM | IC50 (second compound 1 µM): > 1000 nM | IC50 (second compound 3.16 µM): > 1000 nM | IC50 (second compound 10 µM): 866 nM | viability, T/C (second compound 0.0316 µM, first compound 0.00316 µM): 95.7% | viability, T/C (second compound 0.0316 µM, first compound 0.01 µM): 109% | viability, T/C [1]: 94.8% | viability, T/C [2]: 76.1% | viability, T/C [3]: 69.3% | viability, T/C [4]: 61% | viability, T/C (second compound 0.1 µM, first compound 0.00316 µM): 98.6% | viability, T/C (second compound 0.1 µM, first compound 0.01 µM): 99.3% | viability, T/C [5]: 97.8% | viability, T/C [6]: 78.8% | viability, T/C [7]: 65.1% | viability, T/C [8]: 51.7% | viability, T/C (second compound 0.316 µM, first compound 0.00316 µM): 100% | viability, T/C (second compound 0.316 µM, first compound 0.01 µM): 106% | viability, T/C [9]: 85.7% | viability, T/C [10]: 87.4% | viability, T/C [11]: 68% | viability, T/C [12]: 53.5% | viability, T/C (second compound 1 µM, first compound 0.00316 µM): 103% | viability, T/C (second compound 1 µM, first compound 0.01 µM): 101% | viability, T/C [13]: 89.2% | viability, T/C [14]: 75.3% | viability, T/C [15]: 67.2% | viability, T/C [16]: 54.2% | viability, T/C (second compound 3.16 µM, first compound 0.00316 µM): 98.8% | viability, T/C (second compound 3.16 µM, first compound 0.01 µM): 95.3% | viability, T/C [17]: 86.3% | viability, T/C [18]: 74.2% | viability, T/C [19]: 63.3% | viability, T/C [20]: 55.2% | viability, T/C (second compound 10 µM, first compound 0.00316 µM): 95.7% | viability, T/C (second compound 10 µM, first compound 0.01 µM): 97% | viability, T/C [21]: 88.1% | viability, T/C [22]: 79.8% | viability, T/C [23]: 64.4% | viability, T/C [24]: 47.9%
